Measurements from US20100105651A1, “ANTAGONISTS OF SNS SODIUM CHANNELS” (priority 2005, published 2010).

target: T1, human NaV1.8 (hNaV1.8) ion channel (Homo sapiens, UniProt Q9Y5Y9); assay: Inhibition of Human NaV1.8 stably expressed in SH-SY-5Y cells (membrane potential dye fluorescence assay); format: cell-based; conditions: SH-SY-5Y cells stably expressing hNaV1.8; FLIPR membrane potential dye; 10 μM pyrethroid, 250 nM TTX; test range 100 μM-0.05 μM; read-out: hNav1.8 IC50
T1 construct: expressed in transfected cells
Experimental: Inhibition of Human NaV1.8 stably expressed in SH-SY-5Y cells
A SH-SY-5Y neuroblastoma cell line stably expressing the human NaV1.8 (hNaV1.8) ion channel was constructed. This cell line has been used to develop a medium to high throughput assay for determining the ability of test compounds to inhibit membrane depolarisation mediated via the hNaV1.8 channel.
SH-SY-5Y hNaV1.8 are grown in adherent monolayer culture using 50:50 Ham's F-12/EMEM tissue culture medium supplemented with 15% (v/v) foetal bovine serum; 2 mM L-glutamine, 1% NEAA and 600 μg·ml^−1 Geneticin sulphate. Cells are removed from the tissue culture flask using trypsin/EDTA and re-plated into black walled, clear bottom 96-well assay plates at 50,000 cells·well^−1 24 hours prior to assay.
On the day of assay the cell assay plates are washed to remove cell culture medium using a sodium free assay buffer (145 mM tetramethyl ammonium chloride; 2 mM calcium chloride; 0.8 mM magnesium chloride hexahydrate; 10 mM HEPES; 10 mM glucose; 5 mM potassium chloride, pH 7.4). Fluorescent membrane potential dye solution (FLIPR™ membrane potential dye, Molecular Devices Corporation), containing 10 μM of a pyrethroid to prevent channel inactivation and 250 nM tetrodotoxin (TTX) to reduce interference from TTX-sensitive sodium channels present in the cell line. Test compound, initially dissolved in dimethyl sulfoxide but further diluted in sodium free buffer, is added to achieve the final test concentration range of 100 μM-0.05 μM.
Cell plates are incubated for 30 minutes at room temperature to allow equilibration of dye and test compound. Plates are then transferred to a fluorescence plate reader for fluorescence measurement using an excitation wavelength of 530 nm whilst measuring fluorescence emission at 565 nm. […] Membrane depolarisation is registered by an increase in fluorescence emission at 565 nm.
The change in fluorescence seen in each test well upon the addition of sodium containing buffer is calculated relative to the baseline fluorescence for that well. This figure is then used for calculating the IC50 for each test compound.

T1 sequence (Q9Y5Y9 whole entry): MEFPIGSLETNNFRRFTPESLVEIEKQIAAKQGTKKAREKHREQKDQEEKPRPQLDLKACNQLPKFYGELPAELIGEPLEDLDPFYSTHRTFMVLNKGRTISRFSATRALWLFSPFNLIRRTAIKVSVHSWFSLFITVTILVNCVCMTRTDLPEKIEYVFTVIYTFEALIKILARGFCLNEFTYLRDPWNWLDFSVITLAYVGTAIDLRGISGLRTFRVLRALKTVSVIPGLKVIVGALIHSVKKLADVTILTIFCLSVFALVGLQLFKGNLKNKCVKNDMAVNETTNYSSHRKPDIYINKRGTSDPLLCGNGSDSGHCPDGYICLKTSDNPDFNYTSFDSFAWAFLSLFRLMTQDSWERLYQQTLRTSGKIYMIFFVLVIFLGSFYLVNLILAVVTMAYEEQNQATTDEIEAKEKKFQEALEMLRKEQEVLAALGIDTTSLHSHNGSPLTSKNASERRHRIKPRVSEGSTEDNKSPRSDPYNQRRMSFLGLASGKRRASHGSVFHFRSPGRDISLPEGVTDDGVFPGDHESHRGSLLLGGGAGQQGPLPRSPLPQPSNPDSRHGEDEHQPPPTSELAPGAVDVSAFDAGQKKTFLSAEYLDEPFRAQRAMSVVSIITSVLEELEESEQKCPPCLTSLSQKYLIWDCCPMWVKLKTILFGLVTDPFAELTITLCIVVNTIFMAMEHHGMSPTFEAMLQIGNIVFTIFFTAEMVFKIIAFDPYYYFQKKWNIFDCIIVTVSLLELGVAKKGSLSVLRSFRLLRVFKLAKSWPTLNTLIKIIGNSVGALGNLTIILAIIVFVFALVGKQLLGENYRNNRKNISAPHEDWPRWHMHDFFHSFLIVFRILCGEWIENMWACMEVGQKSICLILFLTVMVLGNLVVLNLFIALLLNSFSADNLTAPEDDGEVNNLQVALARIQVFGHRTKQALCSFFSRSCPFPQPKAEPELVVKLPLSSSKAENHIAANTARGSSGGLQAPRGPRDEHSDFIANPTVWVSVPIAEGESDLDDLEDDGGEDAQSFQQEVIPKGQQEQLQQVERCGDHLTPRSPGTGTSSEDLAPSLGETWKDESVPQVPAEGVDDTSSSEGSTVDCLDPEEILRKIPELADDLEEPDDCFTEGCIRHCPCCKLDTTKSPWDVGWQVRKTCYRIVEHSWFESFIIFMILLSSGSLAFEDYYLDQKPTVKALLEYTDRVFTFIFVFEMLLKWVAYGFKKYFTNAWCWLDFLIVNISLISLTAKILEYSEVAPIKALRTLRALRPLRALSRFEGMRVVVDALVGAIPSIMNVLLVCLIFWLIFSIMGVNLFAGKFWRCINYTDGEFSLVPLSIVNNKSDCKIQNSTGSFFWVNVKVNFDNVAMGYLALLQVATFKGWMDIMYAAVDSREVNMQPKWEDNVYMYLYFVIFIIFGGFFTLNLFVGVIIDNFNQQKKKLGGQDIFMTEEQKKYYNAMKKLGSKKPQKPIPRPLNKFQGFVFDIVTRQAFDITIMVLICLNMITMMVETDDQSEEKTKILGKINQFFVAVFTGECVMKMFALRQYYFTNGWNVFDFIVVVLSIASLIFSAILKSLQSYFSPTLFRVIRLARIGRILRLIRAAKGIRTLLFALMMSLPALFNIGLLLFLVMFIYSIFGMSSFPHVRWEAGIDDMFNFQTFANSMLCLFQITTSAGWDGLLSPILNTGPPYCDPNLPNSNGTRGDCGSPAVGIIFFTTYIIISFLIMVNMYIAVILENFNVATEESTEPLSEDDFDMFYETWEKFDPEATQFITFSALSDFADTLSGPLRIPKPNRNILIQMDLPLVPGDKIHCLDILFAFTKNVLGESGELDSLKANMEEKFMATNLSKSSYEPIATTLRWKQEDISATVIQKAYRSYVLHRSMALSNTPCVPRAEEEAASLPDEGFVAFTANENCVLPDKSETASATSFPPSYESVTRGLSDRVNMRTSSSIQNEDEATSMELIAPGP

SMILES	IC50 [nM]
O=C(c1ccccc1)c1ccc(NC(=O)N2CC(NC3CCc4cc(F)ccc43)C2)cc1 (stereo not shown) [Example 31, 3-(5-Fluoro-indan-1-ylamino)-azetidine-1-carboxylic acid (4-benzoyl-phenyl)-amide]	7250
O=C(Nc1ccc(C(F)(F)F)cc1)N1CC(NC2CCc3ccccc3C2)C1 (stereo not shown) [Example 32, 3-(1,2,3,4-Tetrahydro-naphthalen-2-ylamino)-azetidine-1-carboxylic acid (4-trifluoromethyl-phenyl)-amide]	450
O=C(Nc1ccc(C(F)(F)F)cc1)N1CC(NC2CCc3cc(O)ccc32)C1 (stereo not shown) [Example 33, 3-(5-Hydroxy-indan-1-ylamino)-azetidine-1-carboxylic acid (4-trifluoromethyl-phenyl)-amide]	11500
O=C(Nc1ccc(Oc2ccccc2)cc1)N1CC(NC2CCc3ccccc3C2)C1 (stereo not shown) [Example 34, 3-(1,2,3,4-Tetrahydro-naphthalen-2-ylamino)-azetidine-1-carboxylic acid (4-phenoxy-phenyl)-amide]	100
O=C(Nc1ccc(C(F)(F)F)cc1)N1CC(NC2CCc3cc(F)ccc3C2)C1 (stereo not shown) [Example 35, 3-(6-Fluoro-1,2,3,4-tetrahydro-naphthalen-2-ylamino)-azetidine-1-carboxylic acid (4-trifluoromethyl-phenyl)-amide]	1310
O=C(Nc1ccc(C(F)(F)F)cc1)N1CC(NC2CCCc3ccccc32)C1 (stereo not shown) [Example 36, 3-(1,2,3,4-Tetrahydro-naphthalen-1-ylamino)-azetidine-1-carboxylic acid (4-trifluoromethyl-phenyl)-amide]	2770
CN(C1CN(C(=O)Nc2ccc(Oc3ccc(F)cc3)cc2)C1)C1CCc2cc(F)ccc21 (stereo not shown) [Example 37, 3-[(5-Fluoro-indan-1-yl)-methyl-amino]-azetidine-1-carboxylic acid [4-(4-fluoro-phenoxy)-phenyl]-amide]	420
CN(C1CN(C(=O)Nc2ccc(Oc3ccccc3)cc2)C1)C1CCc2cc(F)ccc21 (stereo not shown) [Example 38, 3-[(5-Fluoro-indan-1-yl)-methyl-amino]-azetidine-1-carboxylic acid (4-phenoxy-phenyl)-amide]	560
CN(C1CN(C(=O)Nc2ccc(C(F)(F)F)cc2)C1)C1CCc2cc(F)ccc21 (stereo not shown) [Example 39, 3[(5-Fluoro-indan-1-yl)-methyl-amino]-azetidine-1-carboxylic acid (4-trifluoromethyl-phenyl)-amide]	2020
CN(C1CN(C(=O)Nc2cccc(C(F)(F)F)c2)C1)C1CCc2cc(F)ccc21 (stereo not shown) [Example 40, 3[(5-Fluoro-indan-1-yl)-methyl-amino]-azetidine-1-carboxylic acid (3-trifluoromethyl-phenyl)-amide]	2300
CC1(NC2CCc3cc(F)ccc32)CN(C(=O)Nc2ccc(Oc3ccc(F)cc3)cc2)C1 (stereo not shown) [Example 41, 3-(5-Fluoro-indan-1-ylamino)-3-methyl-azetidine-1-carboxylic acid [4-(4-fluoro-phenoxy)-phenyl]-amide]	560
CC1(NC2CCc3ccccc3C2)CN(C(=O)Nc2ccc(C(F)(F)F)cc2)C1 (stereo not shown) [Example 42, 3-Methyl-3-(1,2,3,4-tetrahydro-naphthalen-2-ylamino)-azetidine-1-carboxylic acid (4-trifluoromethyl-phenyl)-amide]	690
O=C(c1ccc(Oc2ccc(F)cc2)cc1)N1CC(NC2CCc3cc(F)ccc32)C1 (stereo not shown) [Example 43, [3-(5-Fluoro-indan-1-ylamino)-azetidin-1-yl]-[4-(4-fluoro-phenoxy)-phenyl]-methanone]	240
CC(NC1CN(C(=O)c2ccc(Oc3ccccc3)cc2)C1)c1ccccc1 (stereo not shown) [Example 44, (4-Phenoxy-phenyl)-[3-(1-phenyl-ethylamino)-azetidin-1-yl]-methanone]	730
O=C(Cc1ccc(Oc2ccccc2)cc1)N1CC(NC2Cc3ccccc3C2)C1 [Example 45, 1-[3-(Indan-2-ylamino)-azetidin-1-yl]-2-(4-phenoxy-phenyl)-ethanone]	650
CC(NC1CN(C(=O)Cc2ccc(Oc3ccccc3)cc2)C1)c1ccccc1 (stereo not shown) [Example 46, 2-(4-Phenoxy-phenyl)-1-[3-(1-phenyl-ethylamino)-azetidin-1-yl]-ethanone]	1070
O=C(Cc1ccc(Oc2ccccc2)cc1)N1CC(NC2CCc3cc(F)ccc32)C1 (stereo not shown) [Example 47, 1-[3-(5-Fluoro-indan-1-ylamino)-azetidin-1-yl]-2-(4-phenoxy-phenyl)-ethanone]	1660
O=C(Cc1ccc(Oc2ccc(F)cc2)cc1)N1CC(NC2CCc3cc(F)ccc32)C1 (stereo not shown) [Example 48, 1-[3-(5-Fluoro-indan-1-ylamino)-azetidin-1-yl]-2-[4-(4-fluoro-phenoxy)-phenyl]-ethanone]	690
O=C(Cc1ccc(Oc2ccc(F)cc2)cc1)N1CC(NC2Cc3ccccc3C2)C1 [Example 49, 2-[4-(4-Fluoro-phenoxy)-phenyl]-1-[3-(indan-2-ylamino)-azetidin-1-yl]-ethanone]	430
O=C(Cc1ccc(Oc2ccc(F)cc2)cc1)N1CC(NC2Cc3ccc(F)cc3C2)C1 (stereo not shown) [Example 50, 1-[3-(5-Fluoro-indan-2-ylamino)-azetidin-1-yl]-2-[4-(4-fluoro-phenoxy)-phenyl]-ethanone]	780
C=CCOc1ccccc1CNC1CN(C(=O)Nc2ccc(OCc3ccccc3)cc2)C1 [Example 51, 3-(2-Allyloxy-benzylamino)-azetidine-1-carboxylic acid (4-benzyloxy-phenyl)-amide]	340
O=C(Nc1ccc(OCc2ccccc2)cc1)N1CC(NCc2c(F)cccc2F)C1 [Example 52, 3-(2,6-Difluoro-benzylamino)-azetidine-1-carboxylic acid (4-benzyloxy-phenyl)-amide]	870
COC(=O)C(NC1CN(C(=O)Nc2ccc(Oc3ccccc3)cc2)C1)c1ccccc1 (stereo not shown) [Example 53, [1-(4-Phenoxy-phenylcarbamoyl)-azetidin-3-ylamino]-phenyl-acetic acid methyl ester]	2230
COc1ccc(C(C)NC2CN(C(=O)Nc3ccc(Oc4ccccc4)cc3)C2)cc1 (stereo not shown) [Example 54, 3-[1-(4-Methoxy-phenyl)-ethylamino]-azetidine-1-carboxylic acid (4-phenoxy-phenyl)-amide]	420
NC(=O)C(NC1CN(C(=O)Nc2ccc(Oc3ccccc3)cc2)C1)c1ccccc1 (stereo not shown) [Example 55, 3-[(Carbamoyl-phenyl-methyl)-amino]-azetidine-1-carboxylic acid (4-phenoxy-phenyl)-amide]	7710
CC(NC1CN(C(=O)Nc2ccc(C(F)(F)F)cc2)C1)c1ccc(F)cc1 (stereo not shown) [Example 56, 3-[1-(4-Fluoro-phenyl)-ethylamino]-azetidine-1-carboxylic acid (4-trifluoromethyl-phenyl)-amide]	3280
CC(NC1CN(C(=O)Nc2ccc(Oc3ccccc3)cc2)C1)c1ccc(F)cc1Cl (stereo not shown) [Example 57, 3-[1-(2-Chloro-4-fluoro-phenyl)-ethylamino]-azetidine-1-carboxylic acid (4-phenoxy-phenyl)-amide]	1220
CC(NC1CN(C(=O)Nc2cccc(Oc3ccccc3)c2)C1)c1ccc(F)cc1Cl (stereo not shown) [Example 58, 3-[1-(2-Chloro-4-fluoro-phenyl)-ethylamino]-azetidine-1-carboxylic acid (3-phenoxy-phenyl)-amide]	1120
